The source of these data is patent US20240254095A1, “NMDA Receptor Antagonist and Use Thereof” (priority 2021, published 2024).

Molecules are shown by their SMILES. “Also recorded” adds a separate entry of the source. Counter-ions that a name gives are not always drawn. Like-named read-outs stand apart in the source and are kept apart here.

Data set [1] deals with mice. The data set is described as follows: High dose toxicity test (behavior of mice after i.p. administration). It counts as in vivo. Further details: key to Rodent Epileptiform Behavior Scale score (maximum): 0: No abnormal behavior; 1: Unsteady walking/reduced exercise ability/immobility; 2: Generalized clonus/trembling/writhing; 3: The tail is stiff/swinging; 4: Forelimb contractures; 5: Generalized spasms/convulsions; 6: Startle or running convulsive seizures; 7: Generalized tonic-clonic seizures; 8: dead. The following applies: for behavior during observation: observed about one hour; for Rodent Epileptiform Behavior Scale score (maximum): scale 0-8. Here is the method:
• 1. Experiments were performed in a quiet environment where animals needed to be weighed and acclimatized in the laboratory room for at least 30 min before the experiment. • 2. The compound to be tested was dissolved with 0.9% physiological saline at a concentration of 10 mg/ml. According to the body weight of mice, a corresponding volume of the compound was intraperitoneal injected (i.p.), so as to provide the target dose. • 3. The mice after administration were placed in transparent observation boxes, and the behavioral changes of the mice were recorded by video and observed for about one hour. (Note: During the observation period, if a mouse was lying still on the stomach, the mouse was turned over with your hand to check whether the righting reflex (RR) of the mouse disappeared. If it disappeared, the mouse was in the state of anesthesia, the time of anesthesia in the mouse was recorded). • 4. After one hour of observation, the mice were returned to the feeding cage and the observation boxes were wiped with 75% alcohol so that the information left over from the previous round (e.g. animal stool, urine and other odors) would not affect the next test results. Animals were replaced for the next round to continue the experiment.
Mice died after ketamine administration.
According to Rodent Epileptiform Behavior Scale score, Compound 9 induced epileptiform behavior in mice with a maximum score of 3. […] According to the Rodent Epileptiform Behavior Scale score. Compound 41 and 42 induced epileptiform behavior in mice with a maximum score of 1. […] The epileptiform behavior was scored according to the Rodent Epileptiform Behavior Scale score.

For data set [2], the target named is T1, human NMDA receptors GluN1 and GluN2A subunits (GluN2A-containing NMDAR) (Homo sapiens, UniProt Q05586+Q12879).
T1 construct: expressed in transfected cells; host or cells: HEK293 cells, transient liposome transfection of TRE-GluN1-GluN2A, tTA and pCAG-EGFP
Put plainly: cell-based. As for the experimental part: On the day before transfection, HEK293 cells were seeded in a 24-well plate with a 10 mm glass sheet, which was coated with polylysine in advance to increase the adhesion capacity of the cells. The plate was added with DMEM medium containing 10% FBS and incubated at 37° C., in 5% CO2 incubator. When the cell fusion reached 60%-70% after 18-24 hours, the plasmid cDNAs containing TRE-GluN1-GluN2A of human GluN1 and GluN2A, tTA, and pCAG-EGFP were transfected into HEK293 by liposome transfection (TRE-GluN1-GluN2A:tTA:pCAG-EGFP is 0.2 μg:0.2 μg:0.02 μg). Before transfection, anew DMEM medium was changed and added with 1 μg/mL Dox (doxycycline) to induce stable expression in the medium, and added with 100 μM D-APV and 10 mM MgCl2 to avoid cell excitatory toxicity caused by NMDAR overexpression. Cells with green fluorescence were selected for electrophysiological recording after transfection for about 24 h.
A glass plate seeded with HEK293 cells was placed in a recording bath and perfused with the extracellular fluid at a rate of 4 mL/min (NaCl 140 mM, KCl 2.8 mM, HEPES 10 mM, CaCl2 1 mM, glycine 0.1 mM, pH 7.2). The channels of the ALA-VC^3 eight-channel pressure perfusion system were filled with extracellular fluid for washing, extracellular fluid containing glutamic acid (100 μM), and extracellular fluid containing glutamic acid and compound to be tested, respectively, with a drop rate of about 1 drop/sec and 10 μL/drop. HEK293 cells with moderate green fluorescence intensity and good adhesion were selected under a fluorescence microscope for recording. The microglass tube of the perfusion system was placed about ten cells away from the cells to be recorded, and the drug was sprayed to the cell surface under the pressure of air (0.02 MPa). The glass electrode was prepared by drawing with a microelectrode drawing instrument with a resistance of 4-6 MΩ and filled with electrode liquid (CsCl 125 mM, HEPES 10 mM, EGTA 11 mM). The microelectrode manipulator was used to slowly push the glass electrode towards the cells. The electrode was attached to the cell membranes and applied with negative pressure, so that a high-resistance seal of more than 1 GΩ was formed between the electrode tip and the cell membrane, and then negative pressure was given to suck through the cell membrane to form a whole-cell recording mode. After the formation of whole-cell recording mode, the cell membrane potential was clamped at −70 mV. The extracellular fluid containing 100 μM glutamic acid, the extracellular fluid containing 100 μM glutamic acid and the compound to be tested, and the extracellular fluid were sprayed to the cell membrane surface sequentially through the perfusion system for 10 s, 20 s, and 10 s to record the NMDA receptor-mediated current and evaluate the inhibitory effect of the compound on GluN2A-containing NMDAR. The experimental process was controlled by pCLAMP 10.6, and the Digidata 1440A digital-to-analog converter was used to complete the generation of stimulus signal and the acquisition of feedback signal.
The ordinate in the figure is the normalized current ratio, which represents the ratio of the current mediated by NMDAR after administration of ketamine and the compound at a concentration of 10 μM to the current mediated by NMDAR before administration. […] Ketamine was used as a positive control.
The inhibitory percentages of the compound according to the present disclosure on NMDAR-mediated current=[…]/NMDAR mediated-current before administration*100%.

Setting [3] is: high dose 150 mg/kg bw, formate, 150 mg/kg.
The mark [4] stands for this setting: medium dose 100 mg/kg body weight, formate, 100 mg/kg.
Where [5] appears, read: medium dose 100 mg/kg body weight.
The mark [6] stands for this setting: NMDAR-mediated current, HEK293 cells expressing human GluN1/GluN2A, 100 μM glutamic acid, clamped at −70 mV, compound 10 μM, read-out: current inhibitory percentages.
Setting [7] is: medium dose 100 mg/kg body weight, hydrochloride, 100 mg/kg.

T1 sequence (Q12879 23-1464, other chains not shown): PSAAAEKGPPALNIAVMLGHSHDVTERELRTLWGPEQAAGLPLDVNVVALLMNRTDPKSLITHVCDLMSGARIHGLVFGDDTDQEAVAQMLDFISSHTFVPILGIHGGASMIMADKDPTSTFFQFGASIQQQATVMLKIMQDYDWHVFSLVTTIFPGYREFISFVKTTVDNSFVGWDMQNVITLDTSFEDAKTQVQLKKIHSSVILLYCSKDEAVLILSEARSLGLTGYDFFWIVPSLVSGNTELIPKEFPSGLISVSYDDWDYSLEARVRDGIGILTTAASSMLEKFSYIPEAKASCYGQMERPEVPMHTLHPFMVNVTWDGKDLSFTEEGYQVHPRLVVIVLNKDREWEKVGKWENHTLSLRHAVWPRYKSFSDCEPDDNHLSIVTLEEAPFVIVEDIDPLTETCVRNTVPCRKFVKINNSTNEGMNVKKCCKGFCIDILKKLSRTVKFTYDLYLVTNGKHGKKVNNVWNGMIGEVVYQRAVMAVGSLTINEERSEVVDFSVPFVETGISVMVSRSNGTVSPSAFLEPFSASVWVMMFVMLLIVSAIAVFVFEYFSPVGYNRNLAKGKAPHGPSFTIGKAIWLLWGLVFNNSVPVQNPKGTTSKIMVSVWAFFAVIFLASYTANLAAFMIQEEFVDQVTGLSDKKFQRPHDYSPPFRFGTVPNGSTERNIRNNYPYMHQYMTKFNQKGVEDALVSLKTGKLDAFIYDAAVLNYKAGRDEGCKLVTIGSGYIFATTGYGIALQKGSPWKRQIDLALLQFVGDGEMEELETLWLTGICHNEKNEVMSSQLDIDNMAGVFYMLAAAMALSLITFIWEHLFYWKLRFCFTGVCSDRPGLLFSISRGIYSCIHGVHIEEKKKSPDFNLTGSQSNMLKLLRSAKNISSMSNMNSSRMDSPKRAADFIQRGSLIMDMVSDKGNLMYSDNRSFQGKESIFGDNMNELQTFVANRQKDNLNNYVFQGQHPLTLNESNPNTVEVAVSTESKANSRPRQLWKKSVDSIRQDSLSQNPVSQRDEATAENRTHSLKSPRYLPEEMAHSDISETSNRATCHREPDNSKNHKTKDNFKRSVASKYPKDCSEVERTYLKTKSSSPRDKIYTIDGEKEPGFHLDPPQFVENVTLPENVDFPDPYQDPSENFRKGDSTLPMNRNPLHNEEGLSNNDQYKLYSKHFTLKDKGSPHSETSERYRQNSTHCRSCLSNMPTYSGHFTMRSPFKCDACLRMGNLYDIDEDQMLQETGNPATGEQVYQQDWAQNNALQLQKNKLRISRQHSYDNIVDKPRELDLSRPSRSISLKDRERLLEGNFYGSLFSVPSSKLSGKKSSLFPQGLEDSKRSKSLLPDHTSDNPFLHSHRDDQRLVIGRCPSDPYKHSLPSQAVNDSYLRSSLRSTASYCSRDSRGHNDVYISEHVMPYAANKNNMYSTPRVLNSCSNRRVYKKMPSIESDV

Turning to `Clc1ccccc1C12CCCCC1OCCN2` (racemic) [Compound 11, 4a-(2-chlorophenyl)octahydro-2H-benzo[b][1,4]oxazine formate], the behavior during observation result in data set [1] (setting [3]) is “the activity reduction in mice lasted for half an hour before returning to normal”; in data set [1] (setting [4]), “decreased activity; also recorded: Mild epilepsy”. The “Rodent Epileptiform Behavior Scale score (maximum)” value in data set [1] (setting [5]) is recorded as 1. In addition, the inhibition at 10 µM in data set [2] (setting [6]) was found to be 85%.
Take `Clc1cccc([C@]23CCCC[C@H]2OCCN3)c1` [Compound 41, (4aR,8aR)-4a-(3-chlorophenyl)octahydro-2H-benzo[b][1,4]oxazine hydrochloride]: the behavior during observation result in data set [1] (setting [7]) is given as “slightly shaky walking; also recorded: Slight shaking”. The inhibition at 10 µM in data set [2] (setting [6]) turned out to be 92.9%.
Take `Clc1cccc([C@@]23CCCC[C@@H]2OCCN3)c1` [Compound 42, (4aS,8aS)-4a-(3-chlorophenyl)octahydro-2H-benzo[b][1,4]oxazine hydrochloride]: the behavior during observation entry in data set [1] (setting [7]) is recorded as “slightly shaky walking; also recorded: Slight shaking”. Besides, the inhibition at 10 µM in data set [2] (setting [6]) stood at 105%.
For `CNC1(c2ccccc2Cl)CCCCC1=O` (centres unmarked) [Ketamine, reference compound], the behavior during observation entry in data set [1] (high dose 150 mg/kg bw, 150 mg/kg) is reported as “dead”; in data set [1] (high dose 150 mg/kg bw, listed as ketamine, 150 mg/kg), “Mice died”. The inhibition at 10 µM in data set [2] (HEK293, read-out: current inhibitory percentages) was 102%.
Regarding `Clc1cccc(C23CCCCC2OCCN3)c1` (racemic) [Compound 9, 4a-(3-chlorophenyl)octahydro-2H-benzo[b][1,4]oxazine formate], the behavior during observation result is “the state of anesthesia of mice returned to normal after half an hour; also recorded: the state of anesthesia lasted for half an hour” in data set [1] (setting [3]); “intermittent shaky waking, lying still on the stomach, and tail stiffness (seizure for about 10 seconds); also recorded: Moderate epilepsy” in data set [1] (setting [4]). For the same compound, the “Rodent Epileptiform Behavior Scale score (maximum)” value in data set [1] (setting [5]) is on record as 3. Besides, in data set [2] (setting [6]), the inhibition at 10 µM was 88.8%.
As to `Clc1ccccc1[C@@]12CCCC[C@@H]1OCCN2` [Compound 44, (4aS,8aS)-4a-(2-chlorophenyl)octahydro-2H-benzo[b][1,4]oxazine hydrochloride], in data set [1] (setting [7]), the behavior during observation entry is “no obvious abnormalities; also recorded: No abnormal”.
As for `Clc1ccccc1[C@]12CCCC[C@H]1OCCN2` [Compound 43, (4aR,8aR)-4a-(2-chlorophenyl)octahydro-2H-benzo[b][1,4]oxazine hydrochloride], in data set [1] (setting [7]), the behavior during observation result is on record as “no obvious abnormalities; also recorded: No abnormal”.
